Results reported in paper PMC7385619, “A triple action CDK4/6-PI3K-BET inhibitor with augmented cancer cell cytotoxicity” (Cell Discovery, 2020).
pIC50: −log10 of the molar value.

Key:
[1] = molecular target: DNA-PK (Homo sapiens, UniProt P78527); assay: In vitro kinase assay, DNA-PK; type: biochemical; details: Fig. 1b; italicized values from the literature (italics not visible)
[2] = molecular target: T1, kinome (kinase panel) (Homo sapiens, UniProt Q13554); assay: KINOMEscan assay (Eurofins DiscoverX); type: binding; details: CAMK2B; 1000 nM; read-out: Percent Control
T1 construct: purchased Eurofins DiscoverX

[3] = molecular target: T2, kinome (kinase panel) (Homo sapiens, UniProt O14976); assay: KINOMEscan assay (Eurofins DiscoverX); type: binding; details: GAK; 1000 nM; read-out: Percent Control
T2 construct: purchased Eurofins DiscoverX

[4] = molecular target: T3, kinome (kinase panel) (Homo sapiens, UniProt P19525); assay: KINOMEscan assay (Eurofins DiscoverX); type: binding; details: PRKR (Entrez EIF2AK2); 1000 nM; read-out: Percent Control
T3 construct: purchased Eurofins DiscoverX

[5] = molecular target: T4, kinome (kinase panel) (Homo sapiens, UniProt O14578); assay: KINOMEscan assay (Eurofins DiscoverX); type: binding; details: CIT; 1000 nM; read-out: Percent Control
T4 construct: purchased Eurofins DiscoverX

[6] = molecular target: T5, kinome (kinase panel) (Homo sapiens, UniProt Q2M2I8); assay: KINOMEscan assay (Eurofins DiscoverX); type: binding; details: AAK1; 1000 nM; read-out: Percent Control
T5 construct: purchased Eurofins DiscoverX

[7] = molecular target: T6, kinome (kinase panel) (Homo sapiens, UniProt Q00532); assay: KINOMEscan assay (Eurofins DiscoverX); type: binding; details: CDKL1; 1000 nM; read-out: Percent Control
T6 construct: purchased Eurofins DiscoverX
T6 sequence (Q00532 whole entry): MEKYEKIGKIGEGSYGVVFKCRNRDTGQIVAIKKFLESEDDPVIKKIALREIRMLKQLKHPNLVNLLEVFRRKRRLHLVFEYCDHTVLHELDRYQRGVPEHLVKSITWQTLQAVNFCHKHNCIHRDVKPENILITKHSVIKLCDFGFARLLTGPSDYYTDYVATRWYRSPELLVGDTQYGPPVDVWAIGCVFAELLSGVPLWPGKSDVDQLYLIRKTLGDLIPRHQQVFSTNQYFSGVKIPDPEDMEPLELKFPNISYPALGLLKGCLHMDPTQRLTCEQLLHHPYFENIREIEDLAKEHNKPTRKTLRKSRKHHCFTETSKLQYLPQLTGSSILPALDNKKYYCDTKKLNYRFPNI

[8] = molecular target: T7, kinome (kinase panel) (Homo sapiens, UniProt P21127); assay: KINOMEscan assay (Eurofins DiscoverX); type: binding; details: CDC2L1 (Entrez CDK11B); 1000 nM; read-out: Percent Control
T7 construct: purchased Eurofins DiscoverX

[9] = molecular target: T8, kinome (kinase panel) (Homo sapiens, UniProt P53671); assay: KINOMEscan assay (Eurofins DiscoverX); type: binding; details: LIMK2; 1000 nM; read-out: Percent Control
T8 construct: purchased Eurofins DiscoverX
T8 sequence (P53671 whole entry): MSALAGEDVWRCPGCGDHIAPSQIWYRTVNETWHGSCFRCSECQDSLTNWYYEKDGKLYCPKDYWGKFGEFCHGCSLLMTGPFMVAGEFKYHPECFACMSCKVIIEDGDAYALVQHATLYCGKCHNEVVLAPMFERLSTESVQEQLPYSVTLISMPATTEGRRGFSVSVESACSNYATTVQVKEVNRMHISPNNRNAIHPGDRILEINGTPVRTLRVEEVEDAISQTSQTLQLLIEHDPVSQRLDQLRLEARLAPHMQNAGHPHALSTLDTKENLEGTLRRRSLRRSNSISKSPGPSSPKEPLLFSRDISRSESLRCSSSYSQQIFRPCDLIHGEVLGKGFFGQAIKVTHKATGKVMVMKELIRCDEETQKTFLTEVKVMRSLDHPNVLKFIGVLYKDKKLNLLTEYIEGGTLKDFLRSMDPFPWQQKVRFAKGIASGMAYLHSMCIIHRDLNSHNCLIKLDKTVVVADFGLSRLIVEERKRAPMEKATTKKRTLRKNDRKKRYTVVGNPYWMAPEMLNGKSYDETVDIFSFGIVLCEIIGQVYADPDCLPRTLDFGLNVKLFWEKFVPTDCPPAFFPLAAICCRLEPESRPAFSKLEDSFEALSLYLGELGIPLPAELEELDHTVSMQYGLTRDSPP

[10] = molecular target: T9, kinome (kinase panel) (Homo sapiens, UniProt Q7KZI7); assay: KINOMEscan assay (Eurofins DiscoverX); type: binding; details: MARK2; 1000 nM; read-out: Percent Control
T9 construct: purchased Eurofins DiscoverX
T9 sequence (Q7KZI7 whole entry): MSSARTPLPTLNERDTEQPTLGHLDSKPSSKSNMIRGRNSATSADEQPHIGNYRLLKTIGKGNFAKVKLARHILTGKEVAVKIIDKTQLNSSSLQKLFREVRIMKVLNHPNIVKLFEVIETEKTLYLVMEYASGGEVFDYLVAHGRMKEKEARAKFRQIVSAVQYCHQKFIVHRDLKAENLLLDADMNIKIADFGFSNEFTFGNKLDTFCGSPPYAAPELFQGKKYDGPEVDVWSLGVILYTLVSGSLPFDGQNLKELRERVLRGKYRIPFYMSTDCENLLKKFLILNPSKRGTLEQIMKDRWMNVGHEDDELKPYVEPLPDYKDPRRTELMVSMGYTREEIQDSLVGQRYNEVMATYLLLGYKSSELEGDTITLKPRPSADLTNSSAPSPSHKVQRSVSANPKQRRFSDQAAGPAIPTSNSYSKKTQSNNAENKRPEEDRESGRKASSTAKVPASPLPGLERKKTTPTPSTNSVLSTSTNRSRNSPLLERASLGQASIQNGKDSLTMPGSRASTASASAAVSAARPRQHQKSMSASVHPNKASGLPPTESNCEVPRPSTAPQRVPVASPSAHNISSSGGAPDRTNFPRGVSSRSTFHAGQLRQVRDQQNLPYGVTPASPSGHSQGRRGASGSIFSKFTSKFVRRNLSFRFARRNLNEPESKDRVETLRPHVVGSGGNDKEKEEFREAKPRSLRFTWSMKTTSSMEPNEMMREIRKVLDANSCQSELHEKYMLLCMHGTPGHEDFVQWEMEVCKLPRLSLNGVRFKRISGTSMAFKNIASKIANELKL

[11] = molecular target: T10, kinome (kinase panel) (Homo sapiens, UniProt P51817); assay: KINOMEscan assay (Eurofins DiscoverX); type: binding; details: PRKX; 1000 nM; read-out: Percent Control
T10 construct: purchased Eurofins DiscoverX
T10 sequence (P51817 whole entry): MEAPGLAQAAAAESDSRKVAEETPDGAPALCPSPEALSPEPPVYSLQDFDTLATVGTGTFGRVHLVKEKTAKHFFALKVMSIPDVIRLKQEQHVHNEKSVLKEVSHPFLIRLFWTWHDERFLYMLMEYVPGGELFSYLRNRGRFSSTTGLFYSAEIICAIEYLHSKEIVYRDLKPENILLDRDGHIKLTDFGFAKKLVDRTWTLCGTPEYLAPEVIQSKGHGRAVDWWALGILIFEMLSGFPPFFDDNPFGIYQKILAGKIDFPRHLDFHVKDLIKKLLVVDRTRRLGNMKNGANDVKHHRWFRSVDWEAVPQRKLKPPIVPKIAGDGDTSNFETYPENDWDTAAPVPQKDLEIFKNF

[12] = molecular target: T11, kinome (kinase panel) (Homo sapiens, UniProt O14730); assay: KINOMEscan assay (Eurofins DiscoverX); type: binding; details: RIOK3; 1000 nM; read-out: Percent Control
T11 construct: purchased Eurofins DiscoverX

[13] = molecular target: T12, kinome (kinase panel) (Homo sapiens, UniProt Q5VT25); assay: KINOMEscan assay (Eurofins DiscoverX); type: binding; details: MRCKA (Entrez CDC42BPA); 1000 nM; read-out: Percent Control
T12 construct: purchased Eurofins DiscoverX
T12 sequence (Q5VT25 whole entry): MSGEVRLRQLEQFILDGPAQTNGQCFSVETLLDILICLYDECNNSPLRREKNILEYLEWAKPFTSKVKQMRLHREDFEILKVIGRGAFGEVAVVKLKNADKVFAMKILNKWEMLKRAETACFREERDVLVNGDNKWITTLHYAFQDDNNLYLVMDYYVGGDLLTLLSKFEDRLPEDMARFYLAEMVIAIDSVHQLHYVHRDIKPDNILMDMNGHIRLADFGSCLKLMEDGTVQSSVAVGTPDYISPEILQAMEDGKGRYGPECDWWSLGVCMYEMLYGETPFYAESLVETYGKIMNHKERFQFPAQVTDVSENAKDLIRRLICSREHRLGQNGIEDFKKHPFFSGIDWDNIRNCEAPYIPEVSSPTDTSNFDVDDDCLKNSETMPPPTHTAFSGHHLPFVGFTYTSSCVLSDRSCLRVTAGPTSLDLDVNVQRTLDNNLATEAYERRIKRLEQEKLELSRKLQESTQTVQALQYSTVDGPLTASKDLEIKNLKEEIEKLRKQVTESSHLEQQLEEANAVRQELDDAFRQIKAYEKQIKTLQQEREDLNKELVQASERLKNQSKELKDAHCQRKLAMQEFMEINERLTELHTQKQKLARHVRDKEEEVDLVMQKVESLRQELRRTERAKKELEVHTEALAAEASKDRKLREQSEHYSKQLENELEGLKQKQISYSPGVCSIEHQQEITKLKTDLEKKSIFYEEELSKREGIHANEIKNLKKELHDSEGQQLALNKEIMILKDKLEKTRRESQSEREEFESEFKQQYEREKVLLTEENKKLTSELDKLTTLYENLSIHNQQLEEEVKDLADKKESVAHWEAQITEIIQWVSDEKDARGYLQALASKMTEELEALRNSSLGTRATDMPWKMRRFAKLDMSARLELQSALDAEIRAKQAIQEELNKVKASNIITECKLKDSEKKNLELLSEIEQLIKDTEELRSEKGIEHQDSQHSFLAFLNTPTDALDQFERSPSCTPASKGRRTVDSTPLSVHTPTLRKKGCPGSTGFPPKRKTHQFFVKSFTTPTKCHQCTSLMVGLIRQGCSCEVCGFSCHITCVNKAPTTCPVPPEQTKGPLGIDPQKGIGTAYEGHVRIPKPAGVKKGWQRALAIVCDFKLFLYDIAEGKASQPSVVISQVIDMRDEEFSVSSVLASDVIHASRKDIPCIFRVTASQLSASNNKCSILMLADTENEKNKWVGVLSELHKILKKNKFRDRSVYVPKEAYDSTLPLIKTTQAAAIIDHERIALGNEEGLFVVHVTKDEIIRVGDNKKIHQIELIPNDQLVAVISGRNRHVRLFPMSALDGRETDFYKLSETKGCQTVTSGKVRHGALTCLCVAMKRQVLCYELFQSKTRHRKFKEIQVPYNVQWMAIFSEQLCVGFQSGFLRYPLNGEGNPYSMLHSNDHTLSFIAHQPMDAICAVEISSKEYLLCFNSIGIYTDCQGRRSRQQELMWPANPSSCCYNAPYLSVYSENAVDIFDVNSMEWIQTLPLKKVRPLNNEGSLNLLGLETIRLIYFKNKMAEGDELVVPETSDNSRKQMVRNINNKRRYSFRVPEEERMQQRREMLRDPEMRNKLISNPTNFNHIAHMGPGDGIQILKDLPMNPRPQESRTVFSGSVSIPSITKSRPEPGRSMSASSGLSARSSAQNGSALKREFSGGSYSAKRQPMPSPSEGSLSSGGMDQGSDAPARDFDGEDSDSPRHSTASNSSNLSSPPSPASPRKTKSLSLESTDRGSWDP

[14] = molecular target: T13, kinome (kinase panel) (Homo sapiens, UniProt P22607); assay: KINOMEscan assay (Eurofins DiscoverX); type: binding; details: FGFR3; 1000 nM; read-out: Percent Control
T13 construct: purchased Eurofins DiscoverX

[15] = molecular target: T14, kinome (kinase panel) (Homo sapiens, UniProt O00750); assay: KINOMEscan assay (Eurofins DiscoverX); type: binding; details: PIK3C2B; 1000 nM; read-out: Percent Control
T14 construct: purchased Eurofins DiscoverX

[16] = molecular target: T15, kinome (kinase panel) (Homo sapiens, UniProt Q9BQI3); assay: KINOMEscan assay (Eurofins DiscoverX); type: binding; details: EIF2AK1; 1000 nM; read-out: Percent Control
T15 construct: purchased Eurofins DiscoverX

[17] = molecular target: T16, kinome (kinase panel) (Homo sapiens, UniProt P00533, DEL752-759); assay: KINOMEscan assay (Eurofins DiscoverX); type: binding; details: EGFR(S752-I759del); 1000 nM; read-out: Percent Control
T16 construct: purchased Eurofins DiscoverX

[18] = molecular target: T17, kinome (kinase panel) (Homo sapiens, UniProt Q16832); assay: KINOMEscan assay (Eurofins DiscoverX); type: binding; details: DDR2; 1000 nM; read-out: Percent Control
T17 construct: purchased Eurofins DiscoverX

[19] = molecular target: T18, kinome (kinase panel) (Homo sapiens, UniProt Q8IVW4); assay: KINOMEscan assay (Eurofins DiscoverX); type: binding; details: CDKL3; 1000 nM; read-out: Percent Control
T18 construct: purchased Eurofins DiscoverX
T18 sequence (Q8IVW4 whole entry): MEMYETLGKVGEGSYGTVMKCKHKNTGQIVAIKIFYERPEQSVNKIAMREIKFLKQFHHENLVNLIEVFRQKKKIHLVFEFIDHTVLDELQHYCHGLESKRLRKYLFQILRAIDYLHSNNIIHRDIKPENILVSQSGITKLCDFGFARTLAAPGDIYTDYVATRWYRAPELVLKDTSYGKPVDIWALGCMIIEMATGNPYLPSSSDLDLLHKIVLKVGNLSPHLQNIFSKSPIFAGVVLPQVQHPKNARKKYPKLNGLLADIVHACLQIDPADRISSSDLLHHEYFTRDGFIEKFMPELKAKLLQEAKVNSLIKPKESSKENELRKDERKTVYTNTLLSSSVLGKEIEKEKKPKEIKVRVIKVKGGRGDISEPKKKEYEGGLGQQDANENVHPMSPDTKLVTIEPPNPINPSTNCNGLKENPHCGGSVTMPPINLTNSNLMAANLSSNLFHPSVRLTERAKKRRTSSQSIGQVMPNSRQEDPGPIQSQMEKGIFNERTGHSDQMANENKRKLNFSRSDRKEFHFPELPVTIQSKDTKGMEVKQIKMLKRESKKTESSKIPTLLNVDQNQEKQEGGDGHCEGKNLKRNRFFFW

[20] = molecular target: T19, kinome (kinase panel) (Homo sapiens, UniProt P00533, DEL746-750); assay: KINOMEscan assay (Eurofins DiscoverX); type: binding; details: EGFR(E746-A750del); 1000 nM; read-out: Percent Control
T19 construct: purchased Eurofins DiscoverX

[21] = molecular target: T20, kinome (kinase panel) (Homo sapiens, UniProt O75716); assay: KINOMEscan assay (Eurofins DiscoverX); type: binding; details: STK16; 1000 nM; read-out: Percent Control
T20 construct: purchased Eurofins DiscoverX

[22] = molecular target: T21, kinome (kinase panel) (Homo sapiens, UniProt Q9HCP0); assay: KINOMEscan assay (Eurofins DiscoverX); type: binding; details: CSNK1G1; 1000 nM; read-out: Percent Control
T21 construct: purchased Eurofins DiscoverX
T21 sequence (Q9HCP0 whole entry): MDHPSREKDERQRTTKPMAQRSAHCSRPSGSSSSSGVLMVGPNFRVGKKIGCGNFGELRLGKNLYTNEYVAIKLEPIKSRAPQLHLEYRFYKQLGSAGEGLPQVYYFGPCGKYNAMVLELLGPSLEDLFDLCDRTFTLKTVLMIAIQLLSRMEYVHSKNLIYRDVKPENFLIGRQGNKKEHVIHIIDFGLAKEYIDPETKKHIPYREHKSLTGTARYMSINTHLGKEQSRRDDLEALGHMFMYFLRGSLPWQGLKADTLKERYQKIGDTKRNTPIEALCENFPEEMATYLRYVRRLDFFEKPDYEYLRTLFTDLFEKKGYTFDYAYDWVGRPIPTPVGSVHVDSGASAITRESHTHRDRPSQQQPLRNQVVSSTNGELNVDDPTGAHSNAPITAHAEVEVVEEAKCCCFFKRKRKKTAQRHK

[23] = molecular target: T22, kinome (kinase panel) (Homo sapiens, UniProt P29317); assay: KINOMEscan assay (Eurofins DiscoverX); type: binding; details: EPHA2; 1000 nM; read-out: Percent Control
T22 construct: purchased Eurofins DiscoverX

[24] = molecular target: T23, kinome (kinase panel) (Homo sapiens, UniProt P16591); assay: KINOMEscan assay (Eurofins DiscoverX); type: binding; details: FER; 1000 nM; read-out: Percent Control
T23 construct: purchased Eurofins DiscoverX

[25] = molecular target: T24, kinome (kinase panel) (Homo sapiens, UniProt O43683); assay: KINOMEscan assay (Eurofins DiscoverX); type: binding; details: BUB1; 1000 nM; read-out: Percent Control
T24 construct: purchased Eurofins DiscoverX

[26] = molecular target: T25, kinome (kinase panel) (Homo sapiens, UniProt Q9NRP7); assay: KINOMEscan assay (Eurofins DiscoverX); type: binding; details: STK36; 1000 nM; read-out: Percent Control
T25 construct: purchased Eurofins DiscoverX

[27] = molecular target: T26, kinome (kinase panel) (Homo sapiens, UniProt P08581, Y1235D); assay: KINOMEscan assay (Eurofins DiscoverX); type: binding; details: […]; 1000 nM; read-out: Percent Control
T26 construct: purchased Eurofins DiscoverX

[28] = molecular target: T27, kinome (kinase panel) (Homo sapiens, UniProt Q9BVS4); assay: KINOMEscan assay (Eurofins DiscoverX); type: binding; details: RIOK2; 1000 nM; read-out: Percent Control
T27 construct: purchased Eurofins DiscoverX

[29] = molecular target: T28, kinome (kinase panel) (Homo sapiens, UniProt Q92918); assay: KINOMEscan assay (Eurofins DiscoverX); type: binding; details: HPK1 (Entrez MAP4K1); 1000 nM; read-out: Percent Control
T28 construct: purchased Eurofins DiscoverX

[30] = molecular target: T29, CDK2 (Homo sapiens, UniProt P24941); assay: In vitro kinase assay, CDK2; type: biochemical; details: Fig. 1b; italicized values from the literature (italics not visible)
T29 construct: purchased Reaction Biology

[31] = system: NCI-60 Panel of Human Tumor Cell Line; type: cell-based; details: 10 µM, one-dose assay
[32] = system: bromodomain panel; assay: BROMOscan assay (Eurofins DiscoverX); type: binding
[33] = molecular target: T30, CDK9 (Homo sapiens, UniProt P50750); assay: In vitro kinase assay, CDK9; type: biochemical; details: Fig. 1b; italicized values from the literature (italics not visible)
T30 construct: purchased Reaction Biology

CN(C)C(=O)c1cc2cnc(Nc3ccc(-c4csc5c(=O)cc(N6CCOCC6)oc45)cc3)nc2n1C1CCCC1 [SRX3177]
pIC50 [1]: 7.68 | remaining binding at 1 µM [2]: 82% | remaining binding at 1 µM [3]: 56% | remaining binding at 1 µM [4]: 97% | remaining binding at 1 µM [5]: 84% | remaining binding at 1 µM [6]: 49% | remaining binding at 1 µM [7]: 96% | remaining binding at 1 µM [8]: 99% | remaining binding at 1 µM [9]: 92% | remaining binding at 1 µM [10]: 96% | remaining binding at 1 µM [11]: 96% | remaining binding at 1 µM [12]: 21% | remaining binding at 1 µM [13]: 98% | remaining binding at 1 µM [14]: 71% | remaining binding at 1 µM [15]: 86% | remaining binding at 1 µM [16]: 79% | remaining binding at 1 µM [17]: 100% | remaining binding at 1 µM [18]: 56% | remaining binding at 1 µM [19]: 91% | remaining binding at 1 µM [20]: 72% | remaining binding at 1 µM [21]: 28% | remaining binding at 1 µM [22]: 82% | remaining binding at 1 µM [23]: 76% | remaining binding at 1 µM [24]: 92% | remaining binding at 1 µM [25]: 50% | remaining binding at 1 µM [26]: 92% | remaining binding at 1 µM [27]: 100% | remaining binding at 1 µM [28]: 6.6% | remaining binding at 1 µM [29]: 100% | pIC50 [30]: 6.30 | cytotoxic effect in the NCI-60 panel [31]: cytotoxic effects on the majority of the cell lines tested | tumor cytotoxicity compared to SF2523 or SRX3177P ([31]; NCI-60 panel): greater tumor cytotoxicity | specificity in BROMOscan [32]: lack of off-targeting | pIC50 [33]: > 8.70
